# Assays:
# [1] = test system: dry macular degeneration pig model; experiment: Drug efficacy by ERG (electroretinography) 2; format: in vivo
# Experimental: The experiment was performed by the same manner as described in Experimental Example 10 except that a dry macular degeneration pig model was used instead of the dry macular degeneration rabbit model.
# [2] = Solubility in water of doxycycline forms; format: physicochemical; settings: listed as HC
# [3] = test system: retinal degeneration rabbit model; experiment: Drug efficacy by ERG (electroretinography) 1; format: in vivo; settings: for response compared to normal (100%) / Drug efficacy (%): ERG
# Experimental: The normal rabbit was anesthetized, which was adapted for 20 minutes in a dark room. Retinal potential difference was measured by ERG equipment. Electroretinography is a method to observe the response of photoreceptor cells with two light intensities. Particularly, A and B waves were measured from 100 to 10000 mcd, and the retinal potential difference measured at 3000 mcd. Drug efficacy was evaluated by observing the photoreceptor cells, for which the stronger response to wave A was selected.
# Evaluation of candidate substances for dry macular degeneration was performed using a retinal degeneration rabbit model. The compounds of Comparative Examples 2 and 3 were used as comparative compounds. […] The compound of Comparative Example 3 was orally administered once a day (10 mg/rabbit, dissolved in saline).
# [4] = test system: dry macular degeneration pig model; experiment: Drug efficacy by fundoscopy; format: in vivo; settings: IAA 10 mg/kg iv, 7 days after induction, FIG. 13
# Experimental: First, to construct a dry macular degeneration pig model, 10 mg/kg of iodoacetic acid (IAA) was dissolved in PBS (phosphate buffered saline) and injected intravenously to a mini pig (Yutacan Micropig). One week after the IAA administration, retinal degeneration was confirmed by retinal fundus photography and fluorescence (Experimental eye research 2012. 97, 137-147), and a schematic diagram illustrating the eye drop instillation of the compounds is shown in FIG. 12.
# The eye drop instillation of the compounds of the invention was performed from a day before the IAA administration as shown in FIG. 12. 7 days after the induction of retinal degeneration in the pig, retinal fundus photographs were taken and the results are shown in FIG. 13.
smiles,measurement,setting,value
"C[C@H]1c2cccc(O)c2C(=O)C2=C(O)[C@]3(O)C(=O)C(C(N)=O)=C(O)[C@@H](N(C)C)[C@@H]3[C@@H](O)[C@@H]21 [Comparative Example3-HC, doxycycline]",wave A response,"[1]; ERG, FIG. 14 and 15",wave A response was reduced
same,Wave ratio,"[1]; IAA model, ERG wave A, Normal = 1.00",0.38
same,Drug efficacy (%),"[1]; IAA model, ERG, Normal = 100, Veh. = 0",18%
same,solubility in water,[2],well dissolved in water
same,response compared to normal (100%),"[3]; FIG. 11, listed as 3-HC",66.9%
same,response compared to normal (100%),"[3]; FIG. 11, listed as Comparative Example 3-HC",66.9%
same,Wave ratio,"[3]; SI model, ERG wave A after one week, eye drops 100 μl twice a day, Comparative Example 3 oral 10 mg/rabbit once a day, Normal = 1.00",0.67
same,Drug efficacy (%),"[3]; SI model, Normal = 100, Veh. = 0",31%
same,Drug efficacy (%),"[3]; SI model, Normal = 100, Veh. = 0, listed as Comparative Example 3 (HC)",31%
same,Drug efficacy (%),"[3]; SI model, Normal = 100, Veh. = 0, listed as Comparative Example 3-HC",31%
same,retinal fundus photographs,[4],damaged areas (*) were observed
